Like-named read-outs stand apart in the source and are kept apart here. Marks after values point to notes of the source that are not given here.
Tests used:
[1] = test system: spontaneously hypertensive rat; test: Telemetric blood pressure and heart rate in SHR; daglutril, simvastatin or simvastatin+daglutril via drinking water; assay type: in vivo; settings: for DBP, change from baseline / HR, change from baseline / SBP, change from baseline: 24 h mean, day 23 minus baseline (day 3), intended 40 mg/kg/day simvastatin, 100 mg/kg/day daglutril, n = 4-5
Procedure: In a first experiment, after 3 days of monitoring under baseline (untreated) conditions, animals received daglutril via the drinking water. The intended daily dose was 100 mg/kg/day of daglutril. The concentration in drinking water was adjusted once per week, resulting in an average drug intake of 98 mg/kg/day.
Concentrations of simvastatin and daglutril in the drinking water were adjusted once per week, in order to ensure the intended daily intake of 40 and 100 mg/kg, respectively. The average daily water intake amounted to 33 and 36 ml/kg in the simvastatin and simvastatin+daglutril group, respectively, resulting in the uptake of 36 mg/kg/day of simvastatin in the simvastatin group, and 37 mg/kg/day of simvastatin and 93 mg/kg/day of daglutril in the combination group.
These 24 h means were exported to Excel®, and group mean values of systolic (SBP), diastolic blood pressure (DBP), heart rate (HR), and locomotor activity (ACT) were calculated daily. For the statistical analysis, the effects of simvastatin and simvastatin+daglutril were calculated by subtracting the baseline value (pre) measured on the last day prior to compound application (day 3) from that value measured on day 23 (i.e. on the penultimate day of the treatment period) for each animal. The statistical comparison was done by using univariate ANOVA at an error level of P<0.05.

[2] = test system: spontaneously hypertensive rat; settings: in food
Excerpt: Male spontaneously hypertensive rats (=SHR; insulin resistant strain from Charles River; aged 6 months) were equipped with telemetry transmitters for continuous monitoring of blood pressure and heart rate (TA11PA-C40, DSI, USA). Telemetry transmitters for continuous monitoring of blood pressure, heart rate and locomotor activity (TA11PA-C40, Data Sciences, USA) were implanted intraabdominally under inhalative halothane anesthesia. A midline abdominal incision was made, and the abdominal aorta was visualized by removal of retroperitoneal fat and connective tissue. A ligature was placed caudal of the renal arteries, the aorta was punctured with a 22G needle, and the catheter was advanced into the aorta. The entry point was sealed with tissue adhesive (Vetbond™, 3M, USA), the ligature was removed, and the abdominal incision was closed. Measurements of aortic pressure were taken every 5 minutes (=min) for 4 seconds (=s) each at a sampling rate of 500 Hz, and were corrected for the corresponding ambient pressure (ambient pressure monitor, C11PR, Data Sciences, USA).
In a further study performed with a new batch of SHR equipped with telemetry-transmitters as described above, the animals were divided into two groups receiving the HMG CoA reductase inhibitor atorvastatin or a combination of atorvastatin+daglutril. Compounds were mixed into the food, and the daily drug intake was measured by weighing the unconsumed food four times weekly. Intended daily doses were 40 mg/kg/day of atorvastatin and in addition, in the combination group, 100 mg/kg/day of daglutril.
Concentrations of atorvastatin and daglutril in the food were adjusted once per week.
For the statistical analysis, the effects of atorvastatin and atorvastatin+daglutril were calculated by subtracting the baseline value (pre) measured on the last day prior to the start of treatment (day 3) from that measured on day 25 (i.e. on the penultimate day of the treatment period) for each animal. The statistical comparison was done by using a two-sided unpaired Student's t-test.

[3] = test system: human subjects with congestive heart failure; test: Single dose study of oral daglutril during 12-hour right heart catheterization; subgroup analysis by concomitant HMG CoA reductase inhibitor; assay type: in vivo; settings: CHF patients, single oral dose of daglutril (200, 400 or 800 mg groups), with or without concomitant HMG CoA reductase inhibitor; value (SE)
Procedure: A randomized, placebo-controlled, parallel group, multi-center, single dose study of oral daglutril (vide supra) during 12-hour right heart catheterization in human subjects with congestive heart failure (=CHF) was performed. Each subject received one dose of daglutril or placebo. The study consisted of three visits (or study days when in-subjects were included). Ambulatory subjects were in hospital for two nights and one day. […]
The primary efficacy parameter was the maximum decrease from baseline over 6 hours for SVR and was compared between treatment groups using analysis of covariance, with the baseline value as covariate and center and NYHA classification as factors. […] In addition, the existence of a dose-response relationship for daglutril was evaluated by investigating linear, quadratic and cubic contrasts. The secondary efficacy parameter was the maximum change from baseline over 6 hours for PCWP and was analyzed in the same way as the primary variable. The maximum decrease from baseline over 12 hours, the change from for each individual time point and the adjusted area under the curve (=AUC) over 6 and 12 hours were analyzed for SVR and PCWP, using similar statistical methodology as for the main parameter of interest. […]

[4] = 24 h mean, day 25 minus baseline (day 3), intended 40 mg/kg/day atorvastatin, 100 mg/kg/day daglutril, n = 6

Compound	DBP, change from baseline [1]	HR, change from baseline [1]	SBP, change from baseline [1]	DBP, change from baseline [2, 4]	HR, change from baseline [2, 4]	SBP, change from baseline [2, 4]	Effect on blood pressure (both SBP and DBP) (in words) ([2]; SHR)	Placebo corrected mean change of MPAP (average 0.5-6 hrs) [3]	Effect on blood pressure (in words) ([1]; SHR)
CCC(C)(C)C(=O)O[C@H]1C[C@@H](C)C=C2C=C[C@H](C)[C@H](CC[C@@H]3C[C@@H](O)CC(=O)O3)[C@H]21 [Simvastatin, simvastatin]	4.7 mmHg	-4.2 min⁻¹	4.2 mmHg	–	–	–	–	–	–
CC(C)c1c(C(=O)Nc2ccccc2)c(-c2ccccc2)c(-c2ccc(F)cc2)n1CC[C@@H](O)C[C@@H](O)CC(=O)O [Atorvastatin, atorvastatin]	–	–	–	3.2 mmHg	-25.3 min⁻¹	3.5 mmHg	increase in blood pressure	–	–
CCOC(=O)C(CCc1ccccc1)CC1(C(=O)NC2CCc3ccccc3N(CC(=O)O)C2=O)CCCC1 (stereo not drawn) [daglutril, 2-[1-(1-carboxymethyl-2-oxo-2,3,4,5-tetrahydro-1H-benzo[b]azepin-3-ylcarbamoyl)-cyclopentylmethyl]-4-phenyl-butyric acid ethyl ester]	2.0* mmHg	-6.0 min⁻¹	−0.3* mmHg	–	–	–	–	−2.26 (1.05) mm Hg	no effect on blood pressure

From patent US7816347B2, “Pharmaceutical compositions comprising NEP-inhibitors, inhibitors of the endogenous endothelin producing system and HMG CoA reductase inhibitors” (Solvay Pharmaceuticals GmbH, priority 2004, dated 2010)
